This series is described as follows: Stability evaluation of peptide P1 cysteine conjugates in the presence of base, acid or an external thiol nucleophile (LC-MS). Type of series: physicochemical. As to conditions: for stability toward acids (in words): acidic conditions; for stability toward bases (in words): basic conditions; for stability toward external thiol nucleophiles (in words): exogenous thiol. The procedure:
All reported yields were determined by integrating TIC spectra. First, the peak areas for all relevant peptide-containing species on the chromatogram were integrated using Agilent MassHunter software package. Since no peptide-based side products were generated in the experiments, the yields shown in Table 2 were determined as follows: % yield=Spr/Stotal where Spr is the peak area of the product and Stotal is the peak area of combined peptide-containing species (product and starting material). The yield of the stapled peptide (Example 19) was calculated as follows: % yield=k·Spr/Sst where Spr is the peak area of the reaction product, Sst is the peak area of a known amount of purified product, and k equals to the ratio of the known amount of standard divided by the initial amount of starting material. For peptide stability experiments the conversion was calculated as following: % remaining peptide=St/S0 where St is the peak area of the corresponding cysteine conjugate at time t, and S0 is the peak area of the cysteine conjugate at time 0.
Peptide P1 conjugates were pre-dissolved in water in plastic Eppendorfs to afford the 1.11 mM stock solutions used in the stability evaluation experiments. For each experiment, the corresponding cysteine conjugate (1.11 mM; 18 μL) and stability test reagent (2 μL, 50 mM in H2O or 50 mM in 1M Tris, pH 7.4) were combined in a plastic Eppendorf and left at rt for 2 days, followed by 4 days at 37° C. After this time, individual reactions were quenched with a solution of 50% A:50% B (v/v, 200 μL) and the resulting samples were analyzed by LC-MS.
Stability test reagent: K2CO3 (2 μL, 50 mM in H2O); Final conditions before quenching: 1 mM peptide, 5 mM K2CO3; 2 d at rt, then 4 d at 37° C.
Stability test reagent: HCl (2 μL, 1 M in H2O); Final conditions before quenching: 1 mM peptide, 0.1 M HCl; 2 d at rt, then 4 d at 37° C.
Stability test reagent: Glutathione (2 μL, 50 mM in 1 M Tris; pH 7.4); Final conditions before quenching: 1 mM peptide, 5 mM GSH, 0.1M Tris, pH 7.4; 2 d at rt, then 4 d at 37° C.

The mark [1] stands for this setting: 5 mM aqueous K2CO3, 1 mM peptide, 5 mM K2CO3, 2 d at rt, then 4 d at 37° C., read-out: % remaining peptide, base.
Where [2] appears, read: 0.1 M Tris buffer with 5 mM glutathione, 1 mM peptide, 5 mM GSH, 0.1M Tris, pH 7.4, 2 d at rt, then 4 d at 37° C., read-out: % remaining peptide, GSH.
Setting [3] is: 0.1 M aqueous HCl, 1 mM peptide, 0.1 M HCl, 2 d at rt, then 4 d at 37° C., read-out: % remaining peptide, acid.

By amount remaining is commonly meant the share of the starting amount still present when the sample was taken.

Where two headings read alike, the source gives them in different places. Peptide text beside a SMILES is read from it. * marks the point of attachment. Succinimide(1-Et,3-yl) = CCN1C(=O)CC(*)C1=O; Bn = c1ccc(C*)cc1; X1 = Cc1ccc(*)cc1; Cam = NC(=O)C*

For the compound `CC(C)C[C@H](NC(=O)CNC(=O)[C@H](C)NC(=O)[C@H](CSCc1ccccc1)NC(=O)CNC(=O)[C@H](CC(C)C)NC(=O)[C@H](Cc1ccc(O)cc1)NC(=O)[C@H](Cc1ccccc1)NC(=O)[C@H](CC(N)=O)NC(=O)[C@H](CO)NC(=O)[C@@H](N)CCCNC(=N)N)C(=O)N[C@@H](C)C(=O)N[C@@H](Cc1c[nH]cn1)C(=O)N[C@@H](CC(=O)O)C(=O)N[C@@H](CCCCN)C(=O)N[C@@H](C)C(=O)N[C@H](C(N)=O)[C@@H](C)O` (H-RSNFYLGC(Bn)AGLAHDKAT-NH2), the amount remaining at 144 h, 1 mM by setting is: under setting [1], 84%; under setting [2], 88%; under setting [3], 85%.
Take `CC(C)C[C@H](NC(=O)CNC(=O)[C@H](C)NC(=O)[C@H](CSCC(N)=O)NC(=O)CNC(=O)[C@H](CC(C)C)NC(=O)[C@H](Cc1ccc(O)cc1)NC(=O)[C@H](Cc1ccccc1)NC(=O)[C@H](CC(N)=O)NC(=O)[C@H](CO)NC(=O)[C@@H](N)CCCNC(=N)N)C(=O)N[C@@H](C)C(=O)N[C@@H](Cc1c[nH]cn1)C(=O)N[C@@H](CC(=O)O)C(=O)N[C@@H](CCCCN)C(=O)N[C@@H](C)C(=O)N[C@H](C(N)=O)[C@@H](C)O` (H-RSNFYLGC(Cam)AGLAHDKAT-NH2): the “stability toward acids (in words)” value was “unstable” and the “stability toward bases (in words)” value was “unstable”. The fraction remaining at 144 h, 1 mM under setting [1] was found to be 66%. Further, the share remaining at 144 h, 1 mM under setting [2] was found to be 85%. Besides, under setting [3], the fraction remaining at 144 h, 1 mM came out at 63%.
Turning to `CCN1C(=O)CC(SC[C@H](NC(=O)CNC(=O)[C@H](CC(C)C)NC(=O)[C@H](Cc2ccc(O)cc2)NC(=O)[C@H](Cc2ccccc2)NC(=O)[C@H](CC(N)=O)NC(=O)[C@H](CO)NC(=O)[C@@H](N)CCCNC(=N)N)C(=O)N[C@@H](C)C(=O)NCC(=O)N[C@@H](CC(C)C)C(=O)N[C@@H](C)C(=O)N[C@@H](Cc2c[nH]cn2)C(=O)N[C@@H](CC(=O)O)C(=O)N[C@@H](CCCCN)C(=O)N[C@@H](C)C(=O)N[C@H](C(N)=O)[C@@H](C)O)C1=O` (stereo partly shown) (H-RSNFYLGC(Succinimide(1-Et,3-yl))AGLAHDKAT-NH2), the “stability toward bases (in words)” value is recorded as “decomposed” and the “stability toward external thiol nucleophiles (in words)” value is recorded as “decomposed”. In addition, the fraction remaining at 144 h, 1 mM under setting [1] was 0%. Also, under setting [2], the share remaining at 144 h, 1 mM came to 37%. Further, the fraction remaining at 144 h, 1 mM under setting [3] stood at 84%.
For the compound `Cc1ccc(SC[C@H](NC(=O)CNC(=O)[C@H](CC(C)C)NC(=O)[C@H](Cc2ccc(O)cc2)NC(=O)[C@H](Cc2ccccc2)NC(=O)[C@H](CC(N)=O)NC(=O)[C@H](CO)NC(=O)[C@@H](N)CCCNC(=N)N)C(=O)N[C@@H](C)C(=O)NCC(=O)N[C@@H](CC(C)C)C(=O)N[C@@H](C)C(=O)N[C@@H](Cc2c[nH]cn2)C(=O)N[C@@H](CC(=O)O)C(=O)N[C@@H](CCCCN)C(=O)N[C@@H](C)C(=O)N[C@H](C(N)=O)[C@@H](C)O)cc1` (H-RSNFYLGC(X1)AGLAHDKAT-NH2), the “stability toward acids (in words)” value was “stable”, the “stability toward bases (in words)” value is “stable” and the “stability toward external thiol nucleophiles (in words)” value is reported as “stable”. In addition, the “% remaining peptide, base” value (1 mM peptide, 5 mM K2CO3, 2 d at rt, then 4 d at 37° C.) is reported as 83%. Further, under setting [2], the share remaining at 144 h, 1 mM is 90%. Further, the share remaining at 144 h, 1 mM under setting [3] is 83%.

(Values after US20190055280A1, “TRANSITION METAL-BASED SELECTIVE FUNCTIONALIZATION OF CHALCOGENS IN BIOMOLECULES” (Massachusetts Institute of Technoloy, priority 2014, published 2019).)
